SMILES strings stand for the structures.

The test relates to human PBMC cytotoxicity, percent of cell control. The test can be described thus: cytotoxicity in human PBMC, dose response, cytotoxicity control for HIV-1 antiviral lead project, cell-based, PBMC assay companion, set 2 (AID 504571).
Consider `Cc1c2c(=O)n(-c3nc4ccccc4s3)nc-2cc(O)n1Cc1ccccc1`, for which the CC50 – broadly, the concentration at which the toxic effect on the cells reaches its halfway point – is 21 µM. Turning to `COc1ccc(CCn2c(O)cc3nn(-c4nc5ccccc5s4)c(=O)c-3c2C)cc1`, the CC50 was 49.8 µM. `Cc1c2c(=O)n(-c3nc4ccccc4s3)nc-2cc(O)n1CCc1ccc(O)cc1`: the CC50 was 2.55 µM.

As to `Cc1c2c(=O)n(-c3nc4ccccc4s3)nc-2cc(O)n1Cc1ccncc1`, the CC50 is 2.64 µM. Take `Cc1c2c(=O)n(-c3nc4ccccc4s3)nc-2cc(O)n1Cc1ccc(F)cc1`: the half-maximal cytotoxic concentration (CC50) was 19.1 µM. Under `Cc1c2c(=O)n(-c3nc4ccccc4s3)nc-2cc(O)n1C1CC1` stands 5.72 µM; under `Cc1c2c(=O)n(-c3nc4ccccc4s3)nc-2cc(O)n1Cc1cccs1`, 14.2 µM. In the case of `COc1ccccc1Cn1c(O)cc2nn(-c3nc4ccccc4s3)c(=O)c-2c1C`, the 50% cytotoxic concentration (CC50) was 29.6 µM. Under `Cc1c2c(=O)n(-c3nc4ccccc4s3)nc-2cc(O)n1Cc1cccnc1` stands 2.24 µM; under `Cc1c2c(=O)n(-c3nc4ccccc4s3)nc-2cc(O)n1CCc1cccs1`, 40.8 µM. Turning to `COc1ccc(Cn2c(O)cc3nn(-c4nc5ccccc5s4)c(=O)c-3c2C)cc1`, the CC50 was 19.1 µM. Turning to `Cc1c2c(=O)n(-c3nc4ccccc4s3)nc-2cc(O)n1Cc1ccccc1Cl`, the CC50 was 35.6 µM. As to `Cc1c2c(=O)n(-c3nc4ccccc4s3)nc-2cc(O)n1CCC(C)C`, the CC50 was 45 µM.

For the origin of these results see PubChem BioAssay AID504571 (Southern Research Specialized Biocontainment Screening …, 2011).
